Measured values reported in BigSolDB 2.1.

O=C(O)c1cc(=O)[nH]c(=O)[nH]1
solubility (mole fraction)
Details	278.15 K	283.15 K	288.15 K	293.15 K	298.15 K	303.15 K	308.15 K	313.15 K	318.15 K	323.15 K
in DMF	0.00242	0.00305	0.00382	0.00473	0.00578	0.0071	0.00861	0.0108	0.0132	0.0157
in DMSO	–	–	–	0.0326	0.0394	0.0472	0.0563	0.0665	0.0781	0.0911
in THF	7.26e-05	8.12e-05	9.02e-05	0.0001	0.000112	0.000125	0.000138	0.000151	0.000167	0.000185
in acetone	9.3e-06	1.06e-05	1.22e-05	1.37e-05	1.56e-05	1.76e-05	1.95e-05	2.21e-05	2.49e-05	2.78e-05
in ethanol	1.71e-05	1.9e-05	2.09e-05	2.32e-05	2.57e-05	2.86e-05	3.17e-05	3.48e-05	3.88e-05	4.32e-05
in ethyl acetate	1.1e-06	1.2e-06	1.2e-06	1.3e-06	1.4e-06	1.5e-06	1.6e-06	1.8e-06	1.9e-06	2e-06
in isopropanol	1e-05	1.32e-05	1.72e-05	2.12e-05	2.67e-05	3.36e-05	4.18e-05	5.2e-05	6.37e-05	7.71e-05
in methanol	4.44e-05	5.24e-05	6.13e-05	7.19e-05	8.42e-05	9.82e-05	0.000115	0.000135	0.000157	0.000184
in methyl acetate	8.8e-06	9.4e-06	1.03e-05	1.15e-05	1.21e-05	1.31e-05	1.41e-05	1.53e-05	1.64e-05	1.76e-05
in n-butanol	1.47e-05	1.72e-05	2.12e-05	2.53e-05	2.97e-05	3.5e-05	4.06e-05	4.88e-05	5.67e-05	6.63e-05
in n-propanol	2.24e-05	2.57e-05	3e-05	3.42e-05	3.97e-05	4.61e-05	5.31e-05	6.09e-05	7.17e-05	8.18e-05
in water	4.57e-05	5.22e-05	5.97e-05	6.68e-05	7.56e-05	8.5e-05	9.5e-05	0.000107	0.000121	0.000136
